One series relates to cells. The series can be described thus: Standard cell attachment assay. To be noted: for CELL ATTACHMENT ASSAY RESULTS, SODIUM PERIODATE: peptide coupled to HA by sodium periodate method; for CELL ATTACHMENT ASSAY RESULTS, TRESYL CHLORIDE: peptide coupled to HA by tresyl chloride method; for CELL ATTACHMENT ASSAY RESULTS, BDDE: peptide coupled to HA by epoxide (BDDE) method. In kind it is cell-based. Set-up: key: + = positive cell attachment; - = no cell attachment. The procedure: The conjugates prepared by the above described methods, as well as conjugates containing other RGD-peptide sequences, were tested for cell attachment using the following procedures.
New subcultures are made the day before the assay and allowed to grow to 75-80% confluency. When a 100×20 mm dish was 80-90% confluent the cells were detached by adding 4 ml of trypsin/EDTA. When the cells become rounded they are suspended by adding 6 ml of complete media to the 4 ml of trypsin/EDTA (10 ml total). Forty to fifty percent of the cell suspensions were transferred to a new 100×20 mm dish and cultured as usual. One 100×20 mm dish is sufficient to perform 6 cell attachments.
Samples to be tested are placed in 0.5 ml blocking solution (HBSS, 3% BSA, 25 mM Hepes pH 7.0) until needed. Each 100×20 mm dish was trypsinized using 4 ml of trypsin/EDTA for approximately 10 minutes or until cells were easily detached. Cells should not be detached too soon or they will remain aggregated during the cell attachment assay. It is desirable to obtain a good single cell suspension. If clumps of cells are observed let them settle out before using and adjust for the loss of cells in the assay.
The cells were detached from the plate using 6 ml of serum free media (SFM) supplemented with ITS+ (Insulin Transferrin Selenium (Collaborative Research, Inc., Bedford, Mass.), SFM+ITS+=SFM+) for a total volume of 10 ml (4 ml of trypsin/EDTA+6 ml of SFM+). The cells were centrifuged one time to pellet the cells and then they were resuspended in 5 ml of soybean trypsin inhibitor (SBTI) diluted in SFM+. The cells were incubated in SBTI/SFM+ for 10 minutes in a 37° C. water bath. While trypsin was being inactivated, the blocking buyer was removed and the samples suspended in 1 ml of SFM+.
Cells were centrifuged 1 time to remove SBTI. Resuspended cells in 6 ml of SFM+ created a good single cell suspension. If necessary, the resuspended cells can sit on the bench for 5 minutes to let aggregates settle to the bottom before applying to the matrices. Approximately 1 ml of cell suspension per matrix (1-2 mg) was used. The matrix/cells were placed on a rocker in the incubator and cell attachment allowed to go for one to one and half hours. Thereafter, samples were transferred to a 12 well dish and washed 2 times with PBS using an orbital shaker. Neutral red solution (diluted 1:100) was added to PBS and incubated with the cells for 20 minutes on an orbital shaker. Two mls of stain/fix (PBS, 8% formaldehyde, crystal violet 0.0008%) was added and staining allowed to proceed for 2 hours at room temperature on the orbital shaker. Formaldehyde solution was removed and distilled water added. Cell attachment was assessed by microscopy.

In series [1] the test system is full thickness wounds in guinea pigs. The series can be described thus: Full thickness wounds in guinea pigs. In kind it is in vivo, guinea pig. Conditions: Alcian staining; for residence time in the wound bed: Epoxide (BDDE) method; for residence time: Sodium periodate method; for residence time in the dermal wound: Tresyl chloride method, BDDE cross-linked HA created at pH 6. The procedure:
Following the procedures for the full thickness wound model in guinea pigs described in Cheng et al., Arch. Dermatol. 124:221-226 (1988), which is incorporated herein by reference, various peptide-HA conjugates prepared by the above-described methods were analyzed.
The residence times were determined by Alcian staining and were as follows: […]

Square brackets hold non-standard residues; d marks the D form. Ends that are not written are not given here.

As for “Ac G R R R R R G G G R G D I P KNH2 (Ac-GRRRRRGGGRGDIPK-NH2; also: hyaluronate conjugate) [SEQ ID No. 13, RGD peptide, tested conjugated to hyaluronate (HA)]”, in the series on cells, the “CELL ATTACHMENT ASSAY RESULTS, SODIUM PERIODATE” value is “+” and the “CELL ATTACHMENT ASSAY RESULTS, TRESYL CHLORIDE” value is listed as “+”.
Take “Ac G dR dR dR dR dR G G G dR G D S P A S S K (Ac-G[dR][dR][dR][dR][dR]GGG[dR]GDSPASSK; also: hyaluronate conjugate) [SEQ ID No. 5, RGD peptide, tested conjugated to hyaluronate (HA)]”: in the series on cells, the “CELL ATTACHMENT ASSAY RESULTS, BDDE” value is “+” and the “CELL ATTACHMENT ASSAY RESULTS, SODIUM PERIODATE” value is “+”. Also, in series [1], the “residence time in the wound bed” value is 7 to 10 days, the residence time fell in the range of 7 to 10 days and the “residence time in the dermal wound” value lay in the range of 10 to 14 days.
With “Ac R R G R G D I P KNH2 (Ac-RRGRGDIPK-NH2; also: hyaluronate conjugate) [SEQ ID No. 14, RGD peptide, tested conjugated to hyaluronate (HA)]”, in the series with cells, the “CELL ATTACHMENT ASSAY RESULTS, SODIUM PERIODATE” value is “-” and the “CELL ATTACHMENT ASSAY RESULTS, TRESYL CHLORIDE” value is recorded as “+”.
Turning to “Ac R R R G G R G D I P KNH2 (Ac-RRRGGRGDIPK-NH2; also: hyaluronate conjugate) [SEQ ID No. 6, RGD peptide, tested conjugated to hyaluronate (HA)]”, in the series with cells, the “CELL ATTACHMENT ASSAY RESULTS, BDDE” value is “+”; the “CELL ATTACHMENT ASSAY RESULTS, SODIUM PERIODATE” value was “-”; the “CELL ATTACHMENT ASSAY RESULTS, TRESYL CHLORIDE” value is given as “+”.
For “G R R G R R G R G D I P TNH2 (GRRGRRGRGDIPT-NH2; also: hyaluronate conjugate) [SEQ ID No. 18, RGD peptide, tested conjugated to hyaluronate (HA)]”, in the series with cells, the “CELL ATTACHMENT ASSAY RESULTS, BDDE” value was “-” and the “CELL ATTACHMENT ASSAY RESULTS, SODIUM PERIODATE” value is on record as “+”.
Substance “G R R G R R G R G D TNH2 (GRRGRRGRGDT-NH2; also: hyaluronate conjugate) [SEQ ID No. 19, RGD peptide, tested conjugated to hyaluronate (HA)]” returned a residence time in series [1] of 7 to 10 days.
In the case of “G R R R G G G R G D I P TNH2 (GRRRGGGRGDIPT-NH2; also: hyaluronate conjugate) [SEQ ID No. 8, RGD peptide, tested conjugated to hyaluronate (HA)]”, in the series on cells, the “CELL ATTACHMENT ASSAY RESULTS, BDDE” value is “+”; the “CELL ATTACHMENT ASSAY RESULTS, SODIUM PERIODATE” value was “-”; the “CELL ATTACHMENT ASSAY RESULTS, TRESYL CHLORIDE” value was “+”.
“G R R R G G R G D I P TNH2 (GRRRGGRGDIPT-NH2; also: hyaluronate conjugate) [SEQ ID No. 9, RGD peptide, tested conjugated to hyaluronate (HA)]”: in the series with cells, the “CELL ATTACHMENT ASSAY RESULTS, BDDE” value is “+”; the “CELL ATTACHMENT ASSAY RESULTS, SODIUM PERIODATE” value is “-”; the “CELL ATTACHMENT ASSAY RESULTS, TRESYL CHLORIDE” value was “+”.
Consider “G R R R G G R G D I PNH2 (GRRRGGRGDIP-NH2; also: hyaluronate conjugate) [SEQ ID No. 7, RGD peptide, tested conjugated to hyaluronate (HA)]”, for which, in the series on cells, the “CELL ATTACHMENT ASSAY RESULTS, BDDE” value was “+”; the “CELL ATTACHMENT ASSAY RESULTS, SODIUM PERIODATE” value is listed as “-”; the “CELL ATTACHMENT ASSAY RESULTS, TRESYL CHLORIDE” value was “+”.
Take “G R R R R G G G R G D I P TNH2 (GRRRRGGGRGDIPT-NH2; also: hyaluronate conjugate) [SEQ ID No. 4, RGD peptide, tested conjugated to hyaluronate (HA)]”: in the series with cells, the “CELL ATTACHMENT ASSAY RESULTS, BDDE” value is “+”; the “CELL ATTACHMENT ASSAY RESULTS, SODIUM PERIODATE” value is recorded as “+”; the “CELL ATTACHMENT ASSAY RESULTS, TRESYL CHLORIDE” value was “+”.
For “G R R R R R G G G R G D I PNH2 (GRRRRRGGGRGDIP-NH2; also: hyaluronate conjugate) [SEQ ID No. 12, RGD peptide, tested conjugated to hyaluronate (HA)]”, in the series on cells, the “CELL ATTACHMENT ASSAY RESULTS, SODIUM PERIODATE” value is “+” and the “CELL ATTACHMENT ASSAY RESULTS, TRESYL CHLORIDE” value is reported as “+”. This substance showed a residence time in series [1] of 7 to 10 days.
As to “G R R R R R G G R G D I P TNH2 (GRRRRRGGRGDIPT-NH2; also: hyaluronate conjugate) [SEQ ID No. 3, RGD peptide, tested conjugated to hyaluronate (HA)]”, in the series on cells, the “CELL ATTACHMENT ASSAY RESULTS, BDDE” value was “+”; the “CELL ATTACHMENT ASSAY RESULTS, SODIUM PERIODATE” value is listed as “+”; the “CELL ATTACHMENT ASSAY RESULTS, TRESYL CHLORIDE” value is on record as “+”.
“G R R R R R G R G D I P TNH2 (GRRRRRGRGDIPT-NH2; also: hyaluronate conjugate) [SEQ ID No. 2, RGD peptide, tested conjugated to hyaluronate (HA)]”: in the series with cells, the “CELL ATTACHMENT ASSAY RESULTS, BDDE” value is given as “+”; the “CELL ATTACHMENT ASSAY RESULTS, SODIUM PERIODATE” value is “+”; the “CELL ATTACHMENT ASSAY RESULTS, TRESYL CHLORIDE” value is on record as “+”.
Consider “G dR dR dR dR dR G G G dR G D S P A S S K (G[dR][dR][dR][dR][dR]GGG[dR]GDSPASSK; also: hyaluronate conjugate) [SEQ ID No. 1, RGD peptide, tested conjugated to hyaluronate (HA)]”, for which, in the series with cells, the “CELL ATTACHMENT ASSAY RESULTS, BDDE” value is “+”; the “CELL ATTACHMENT ASSAY RESULTS, SODIUM PERIODATE” value is “+”; the “CELL ATTACHMENT ASSAY RESULTS, TRESYL CHLORIDE” value was “+”. In addition, in series [1], the “residence time in the wound bed” value fell in the range of 7 to 10 days, the residence time entry was “at least 30 days” and the “residence time in the dermal wound” value lay in the range of 10 to 14 days.
“R R R G R G D I P TNH2 (RRRGRGDIPT-NH2; also: hyaluronate conjugate) [SEQ ID No. 11, RGD peptide, tested conjugated to hyaluronate (HA)]”: the “CELL ATTACHMENT ASSAY RESULTS, BDDE” value in the series on cells is “+”.
With “R R R R G R G D I P TNH2 (RRRRGRGDIPT-NH2; also: hyaluronate conjugate) [SEQ ID No. 10, RGD peptide, tested conjugated to hyaluronate (HA)]”, in the series on cells, the “CELL ATTACHMENT ASSAY RESULTS, BDDE” value is given as “+” and the “CELL ATTACHMENT ASSAY RESULTS, SODIUM PERIODATE” value is recorded as “+”.
